According to patent US7749969B2, “N- or C- terminally modified small peptides” (Zealand Pharma A/S, priority 2005, dated 2010):
Square brackets hold non-standard residues; d marks the D form. Peptide text beside a SMILES is read from it. * marks the point of attachment. Bz = O=C(c1ccccc1)*

How the values were obtained:
[1] = test system: calcium-induced arrhythmias; assay: Calcium-induced arrhythmia model (time lag to conduction block after CaCl2 infusion); assay type: in vivo, mouse; details: male NMRI mice; 1 nmol/kg i.v. 3 min before CaCl2 infusion; (tarr test compound − tarr vehicle)×100/tarr vehicle
Protocol: Peptides suitable for administration to cardiac cells can be identified in an in vivo model of calcium-induced arrhythmias according to the model of Lynch et al. (1981) J Cardiovasc. Pharmacol. 3:49-60. Mice (25-30 g) are anaesthetized with a neurolept anaesthetic combination and an i.v. cannula is inserted into the tail vein. A lead II ECG signal is recorded continuously by positioning a stainless steel ECG electrodes on the right forelimb and on the left hind limb. The ground electrode is placed on the right hind limb. The signal is amplified (×5.000-10.000) and filtered (0.1-150 Hz) via a Hugo Sachs Electronic model 689 ECG module. The analogue signal is digitized via a 12 bit data acquisition board (Data Translation model DT321) and sampled at 1000 Hz using the Notocord HEM 3.1 software for Windows NT. After a 10-minute equilibration period, the test sample of compound is injected into the tail vein. Mice pre-treated with buffer are tested as a measure of the control level in untreated animals. The injection volume is 100 μl in all experiments.
Infusion of CaCl2 (30 mg/ml, 0.1 ml/min≈100 mg/kg/min (calcium chloride-2-hydrate, Riedel-de Haën, Germany)) is started 3 min after i.v. administration of drug or vehicle. The time lag to onset of 2nd degree AV-block is determined as the time from the start of CaCl2 infusion until the first arrhythmic event occurs. An event of 2nd degree AV-block is defined as intermittent failure of the AV conduction characterised by a P-wave without the concomitant QRS complex.
Responses are expressed relative to the time until 2nd degree AV-block occurred in vehicle treated mice. The maximal effect of compounds (e.g., N- or C-terminally modified peptides of the invention, AAP, AAP10 or controls) is determined. […] Preferably, the compounds provide at least about 40% of the activity of AAP, for example at least about 50% of the activity of AAP, such as about 60% of the activity of AAP, for example at least about 70% of the activity of AAP, such as at least about 80% of the activity of AAP, for example at least about 90% of the activity of AAP, for example at least about substantially the same activity of AAP, such as about 110% of the activity of AAP, for example at least about 120% of the activity of AAP, such as at least about 130% of the activity of AAP, for example at least about 140% of the activity of AAP, such as about 150% of the activity of AAP, for example at least about 160% of the activity of AAP, such as at least about 170% of the activity of AAP, for example at least about 180% of the activity of AAP, preferably at least about 190% of the activity of AAP, more preferably at least about 200 or greater % of the activity of AAP (i.e., the compounds show time lags of approximately the same duration as induced by AAP).
The anti-arrhythmic effect of the present compounds was tested in a model of calcium-induced arrhythmias according to the model of Lynch et al., J. Cardiovasc. Pharmacol. (1981), 3: 49-60. Male NMRI mice (25-30 grams; Bomholdtgaard, L I. Skendsved, Denmark) were anesthetized with a neurolept anesthetic combination (Hynorm® (fentanyl citrate 0.315 mg/mL and fuanisone 10 mg/mL) and midazolam at 5 mg/mL. Commercial solutions of Hynorm® and midazolam were diluted 1:1 in distilled water, and one part Hynorm® was mixed with one part diluted midazolam. Anesthesia is induced by s.c. administration of this solution in a dose of 50-75 μL/10 gram mouse.
An intravenous cannula was inserted into the tail vein. The lead II ECG signal was recorded continuously by positioning of stainless steel ECG electrodes on the right forelimb and on the left hind limb. The ground electrode was placed on the right hind limb. The signal was amplified (×5.000-10.000) and filtered (0.1-150 Hz) via a Hugo Sachs Electronic model 689 ECG module. […]

CYP 3A4 = CYP 3A4 (Homo sapiens, UniProt P08684); assay: Cytochrome P450 oxidase (CYP) inhibition, fluorescent probe; assay type: in vitro ADME; details: recombinant human CYP isozyme 3A4
Description: Cytochrome P450 enzymes (CYPs) constitute a superfamily of heme proteins involved in the metabolism of endogenous and exogenous compounds in living organisms. In particular, a number of CYP isozymes are important in the oxidative metabolism of drug molecules. Interactions with these enzymes could lead to altered pharmacokinetic parameters, such as half life, Cmax, or AUC of other co-administered drug molecules. To reduce this kind of interaction in vitro screening of drug candidates for inhibition of drug-metabolizing CYPs has been carried out.
Cytochrome P oxidase (CYP) Inhibition: The compound solution is added to a mixture of recombinant human CYP isozymes, NADPH regenerating solution, buffer, and “probe” compounds for each isozyme. The degree of reduction in the rate of metabolism of the probe to a fluorescent metabolite is an indication of the potential CYP inhibition of the test compound. The CYP 450 isozyme tested is 3A4.

[2] = PAMPA-BBB permeability test (brain lipid artificial membrane); assay type: in vitro ADME; details: brain lipid 20% in dodecane; pH 7.4 buffer; 14 hr diffusion
Description: The compounds of the invention show desirable pharmacokinetic profiles as evidenced from data obtained when testing the permeability of the compounds across a synthetic biomimetic membrane that resembles the blood brain barrier (PAMPA-BBB) and the compounds ability to inhibit the activity of cytochrome P 450 oxidase isozyme 3A4. Normally it is desirous to avoid having drugs targeting the cardiovascular systems and other non-CNS ailments such as osteoporosis being less able to cross the blood brain barrier and thus penetrate into the central nervous system.
Permeability test: Compounds in DMSO solution are added to pH 7.4 buffer in a 96 well plate (“donor”). The buffer is placed in contact with a 96 well filter plate in which the pours have been filled with an artificial membrane (2% phosphatidyl choline in dodecane). The top wells of the filter plate are filled with aqueous buffer (“acceptor”). Compound molecules diffuse into the artificial membrane and then into the acceptor buffer. After a 14 hr diffusion experiment, the donor and acceptor wells are measured on a UV plate reader and compared to a standard. The experiment is termed “PAMPA”. Permeability-BBB: The PAMPA experiment above is repeated using brain lipid (20% in dodecane) to provide a prediction of blood-brain barrier permeation by passive diffusion.

CYP 3A4, sequence (P08684 whole entry): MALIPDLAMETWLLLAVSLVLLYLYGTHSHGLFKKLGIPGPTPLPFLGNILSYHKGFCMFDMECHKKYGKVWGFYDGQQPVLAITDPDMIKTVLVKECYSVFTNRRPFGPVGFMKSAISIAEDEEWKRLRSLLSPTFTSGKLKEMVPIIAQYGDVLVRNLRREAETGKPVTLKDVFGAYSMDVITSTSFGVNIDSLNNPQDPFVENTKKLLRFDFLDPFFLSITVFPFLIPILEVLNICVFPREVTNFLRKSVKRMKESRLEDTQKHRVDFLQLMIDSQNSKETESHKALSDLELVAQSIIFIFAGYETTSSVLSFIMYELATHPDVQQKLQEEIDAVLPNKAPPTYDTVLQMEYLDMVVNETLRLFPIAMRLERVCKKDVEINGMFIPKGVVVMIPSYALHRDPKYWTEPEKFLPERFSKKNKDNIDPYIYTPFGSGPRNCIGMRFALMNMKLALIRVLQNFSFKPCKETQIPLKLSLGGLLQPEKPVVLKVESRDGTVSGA

| Molecule | % response (increase of time lag to onset of arrhythmias relative to vehicle) [1] | CYP450 Inhibition at 3 μM (% Inhibition) CYP 3A4 (CYP 3A4) | PAMPA-BBB [2] |
| --- | --- | --- | --- |
| NC(=O)CNC(=O)[C@H](CC(N)=O)NC(=O)Cc1cc(=O)oc2cc(O)ccc12 [Compound 1, N-(7-hydroxycoumarin-4-acetyl)-Asn-Gly-NH2] | 20.9% | – | – |
| NC(=O)[C@H](Cc1ccc(O)cc1)NC(=O)CNC(=O)CO [Compound 2, N-(hydroxyacetyl)-Gly-Tyr-NH2] | 48.7% | – | – |
| NC(=O)C[C@H](NC(=O)CS)C(=O)N[C@@H](Cc1ccc(O)cc1)C(N)=O [Compound 7, N-(thiohydroxyacteyl)-Asn-Tyr-NH2] | – | <15 % Inhibition | 0 10^−6 cm/s |
| CC(=O)OCC(=O)N[C@@H](CC(N)=O)C(=O)N[C@@H](Cc1ccc(O)cc1)C(N)=O [Compound 8] | 16.5% | <15 % Inhibition | 0 10^−6 cm/s |
| NCC(=O)N[C@@H](CC(N)=O)C(=O)NCc1ccc2ccc3cccc4ccc1c2c34 [Compound 12, H-Gly-Asn-NH(pyrenylmethyl)] | 38.0% | <15 % Inhibition | 0 10^−6 cm/s |
| NC(=O)C[C@@H](NC(=O)Cc1cc(=O)oc2cc(O)ccc12)C(=O)NCC(=O)O [Compound 15, N-(7-hydroxycoumarin-4-acetyl)-D-Asn-Gly-OH] | 28.5% | – | – |
| COCC(=O)N[C@@H](CC(N)=O)C(=O)N[C@@H](Cc1ccc(O)cc1)C(N)=O [Compound 16, (Methoxyacetyl)-Asn-Tyr-NH2] | – | <15 % Inhibition | 0 10^−6 cm/s |
| N[C@@H](CCCCNC(=O)c1ccc([N+](=O)[O-])cc1)C(=O)NCC(=O)O [WO2004/048400 7, H-K(4-nitrobenzoyl)-G-OH, reference compound] | – | 15–25 % Inhibition | – |
| CN(CC(=O)O)C(=O)[C@@H](N)CCCCNC(=O)c1ccc([N+](=O)[O-])cc1 [WO2004/048400 8, H-K(4-nitrobenzoyl)-Sar-OH, reference compound] | – | 15–25 % Inhibition | – |
| N[C@H](CCCCNC(=O)c1ccccc1)C(=O)NCC(=O)O [WO2004/048400 23, H-DLys(benzoyl)-G-OH, reference compound] (H-[dK](Bz)-Gly-OH) | – | 15–25 % Inhibition | – |
| COc1ccc(CNC(=O)C[C@H](N)C(=O)N[C@H](C)C(=O)O)cc1 [WO2004/048400 80, H-Asn(4-methoxybenzyl)-DAla-OH, reference compound] | – | 15–25 % Inhibition | – |
| H-Gly-Asn-NH(4-nitrophenyl) [Compound 10] | 38.0% | <15 % Inhibition | 0 10^−6 cm/s |
